# How the values were obtained:
# [1] = tested on: PDAC cells; test: Dose-response viability experiments (Crystal violet viability assay); format: cell-based, human; details: 72 h; for Relative cell viability, mean of the treated cells: compared to non-treated cells
# Method: We used 21 PDAC primary cells obtained from Patient-Derived Xenografts (PDX) from the PaCaOmics cohort, in which patients were included under the Paoli-Calmettes Institute clinical trial number 2011-A01439-32. Consent forms of informed patients were collected and registered in a central database. PDAC cells were obtained and maintained in serum-free ductal media (SFDM) as described, and incubated at 37° C. in a 5% CO2 incubator. Cell lines were monthly tested for Mycoplasma contamination and found to be negative.
# We tested the sensitivity of PDAC cells to three different drugs targeting the FAO pathway: Etomoxir, Perhexiline, and Trimetazidine (all provided by Sigma-Aldrich, Saint-Quentin Fallavier, France), and to the standard chemotherapy Gemcitabine (Gemzar, Eli Lilly & Co).
# Cells were seeded in 96-well plates (5,000 cells per well) and 24 h later, the medium was supplemented with increasing concentrations of the drugs in triplicates. For the combination treatment, we used Perhexiline at 5 μM with increasing doses of Gemcitabine. Cell viability was determined 72 h later by Crystal violet viability assay, which is independent from cell metabolism. Briefly, cells were fixed in Glutaraldehyde 1%, washed twice with PBS, stained with crystal violet 0.1% for 10 min, and then washed three times with PBS. Crystals were solubilized in SDS 1%, and absorbance was measured at 600 nm using an Epoch-Biotek spectrophotometer.
# [2] = tested on: PDAC012T xenograft; test: Subcutaneous PDAC xenograft, tumor growth; format: in vivo, mice; details: one month IP; Gemcitabine 120 mg/kg twice a week; intermediate responder
# Method: (§1) We assessed the FAO inhibition impact in vivo using the drug Perhexiline in combination with Gemcitabine. We performed subcutaneous xenografts in immunodeficient mice using four different primary PDAC cells. Recipient mice were 6-week-old female Swiss nude mice Crl:Nu(lco)-Foxn1nu purchased from Charles River, France. To obtain the xenografts, subcutaneous tumors from initial mouse donors were removed and finely minced with a scalpel. Then, 150 mg of tumor's pieces were mixed with 50 μl of Matrigel and implanted with a trocar (10 Gauge) in the subcutaneous space of anesthetized mice. Tumor volume was measured twice per week using a digital caliper and using the formula V=lenght×(width)/2. When tumor volume reached 200 mm^3, mice were randomly assigned in a treatment scheme:
# (§2) a) Gemcitabine: 120 mg/kg twice a week
# (§3) b) Perhexiline: 5 mg/kg every other day
# (§4) c) Combination treatment: Gemcitabine plus Perhexiline with the same described indications
# (§5) d) Vehicle: PBS in the case of Gemcitabine treatment controls and 3% DMSO in PBS for combination treatment controls.
# (§6) Mice were treated by intraperitoneal injection during one month, and mice in which tumor volume reached 1.5 cm^3 during this period were ethically sacrificed and tumors removed.
# [3] = tested on: PDAC032T xenograft; test: Subcutaneous PDAC xenograft, tumor growth; format: in vivo, mice; details: one month IP; Gemcitabine 120 mg/kg twice a week; low responder
# Method: as §1, §2, §3, §4, §5, §6
# [4] = tested on: PDAC084T xenograft; test: Subcutaneous PDAC xenograft, tumor growth; format: in vivo, mice; details: one month IP; Gemcitabine 120 mg/kg twice a week, Perhexiline 5 mg/kg every other day; high responder
# Method: as §1, §2, §3, §4, §5, §6
# [5] = tested on: four PDAC cells; test: AnnexinV/PI apoptosis assay (flow cytometry); format: cell-based, human; details: Perhexiline 7 μM, 72 h
# Method: Cells were seeded in 6-well plates in duplicates (150 000 cells per well) and the day after, the corresponding treatment was administered. We treated four PDAC cells with 7 μM of Perhexiline for 72 h (FIG. 5A), and in combination with 1 μM of Gemcitabine for 24 h for the PDAC084T cells. After the treatment period, cells were detached with Accutase, and resuspended in Annexin V-binding buffer (Biolegend). Cell death was determined using the Annexin V and Propidium Iodide (PI) staining (Biolegend), for apoptosis and necrosis, respectively. Ten thousand events per sample were acquired in a MAC SQuant-VYB (Miltenyi Biotec) and data analysis was done with the FlowJo software.
# [6] = tested on: PDAC084T cells; test: Real-time metabolic analysis (Seahorse XF Cell Mito Stress Test); format: cell-based, human; details: Perhexiline 10 μM, 6 h
# Method: We tested the impact of […], and the combination treatment (6 hours) on the mitochondrial respiration in PDAC084T cells. Measurements were performed using the Seahorse Bioscience XFe24 Extracellular Flux Analyzer (Agilent). Sixteen hours before the assay, cells at exponential growth were seeded into Seahorse 24-well plates and cultured at 37° C. with 5% CO2. Six hours before the assay, the media was replaced with vehicle DMSO (0.01%), Gemcitabine (1 μM), Perhexiline (10 μM), or the combination of the two drugs. After 6 h treatment, the media was replaced with OXPHOS assay medium (DMEM without phenol red [Sigma-Aldrich reference D5030], 143 mM NaCl, 2 mM glutamine, 1 mM sodium pyruvate and 10 mM glucose, pH 7.4) and the plate was pre-incubated for 1 h at 37° C. in a non-CO2 incubator. OCR was measured under basal conditions, and then after sequential injections of Oligomycin at 1 μM, carbonyl cyanide-p-trifluoromethox-[…]-hydrazon (FCCP, the concentration was optimized for each cell line), and 0.5 μM of Rotenone plus Antimycin A. Oligomycin is a respiratory Complex V inhibitor that allows to calculate ATP production by mitochondria, and FCCP is an uncoupling agent allowing the determination of the maximal respiration and the spare capacity. […]
# [7] = tested on: four PDAC xenografts; test: Subcutaneous PDAC xenografts, tumor growth (four models overall); format: in vivo, mice; details: Perhexiline 5 mg/kg IP every other day, one month
# Method: as §1, §2, §3, §4, §5, §6
compound,measurement,setting,value
COc1ccc(CN2CCNCC2)c(OC)c1OC [Trimetazidine],Relative cell viability,"[1]; Trimetazidine 62.5 μM, compared with non-treated cells",no effect in any cell
CCOC(=O)[C@@]1(CCCCCCOc2ccc(Cl)cc2)CO1 [Etomoxir],"Relative cell viability, mean of the treated cells",[1]; Etomoxir 62.5 μM,0.75
Nc1ccn([C@@H]2O[C@H](CO)[C@@H](O)C2(F)F)c(=O)n1 [Gemcitabine],Tumor growth,[2],arresting the tumor growth
same,Tumor growth,[3],induces tumor regression
same,Tumor growth,[4],arresting the tumor growth
C1CCC(C(CC2CCCCN2)C2CCCCC2)CC1 (stereo not shown) [Perhexiline],Cell viability,[1]; Perhexiline 5 μM alone,no impacts cell viability
same,"Relative cell viability, mean of the treated cells",[1]; Perhexiline 7 μM,0.72
same,Cell death (apoptosis induction),[5],apoptotic inductor
same,Decrease of mitochondrial respiration (OCR),[6],about 50%
same,Tumor growth compared with vehicle-injected mice,[7],doesn't have any impact on tumor growth
